According to patent publication US20250032430A1, “USES OF RHODOQUINONE FOR THE TREATMENT OF DISEASE” (Whitehead Institute for Biomedical Research, priority 2021, published 2025):
Read-outs that look alike come from different tables or passages of the source.

Assays:
[1] = tested on: SDH complex; test: SDH activity assay in permeabilized purified mitochondria; format: biochemical, human
Procedure: SDH activity was examined in permeabilized purified mitochondria. The rate of succinate oxidation was measured by monitoring fumarate production over time after initiating the reaction with succinate. The rate of fumarate reduction was measured in a separate assay by monitoring the rate of succinate production over time after initiating the reaction with fumarate and NADH. […] Moreover, complex I inhibition by piericidin suppressed the fumarate reduction caused by antimycin treatment (FIG. 2I).
Isolation of Mitochondria for Biochemical Assays: 143B cells were scraped and pelleted at 1000×g for 5 minutes. Cell pellets were washed in 1×PBS and pelleted at 1000×g for 5 minutes. For tissue samples, approximately 100 mg of tissue powder was weighed out. Tissue powder or cells were re-suspended in isolation buffer (200 mM sucrose, 10 mM Tris HCl, 1 mM EGTA/Tris, pH 7.4 (adjusted with 1M HEPES)), transferred into an ice-cold glass homogenizer (VWR), and dounced with 15-30 strokes. Homogenates were transferred into tubes and spun at 600×g for 10 minutes at 4° C. Supernatants were moved to a new tube and centrifugation was repeated. Then, supernatants were moved to a new tube and pelleted at 7,000×g for 10 minutes at 4° C. Pellets were washed in isolation buffer and centrifugation was repeated. Pellets were subsequently stored at −80° C. until use.
SDH Activity Assay: Purified mitochondria were re-suspended in buffer (0.22 M Mannitol, 0.075 M Sucrose, 1 mM EDTA, 10 mM HEPES pH 7.4, and one complete Protease inhibitor tablet (Sigma)) to a concentration of 5 mg/mL and underwent 5 freeze-thaw cycles to permeabilize them. 30 μg mitochondria (6 uL) were diluted 1:10 (in 54 uL) of SDH activity assay buffer (27.5 mM KH2PO4 pH 7.4, 1.1 mM CoQ-10 (Sigma), 3.5 g/L BSA). Reactions were supplemented with DMSO, 1 μM antimycin, or 1 μM piericidin and pre-incubated at 37° C. for 10 minutes. […] Samples were centrifuged at 16,000×g for 10 minutes at 4° C. and supernatants were dried down and analyzed by LC-MS for succinate and fumarate.

[2] = tested on: kidney; test: Kidney tissue cultured ex vivo (quinone levels, fumarate reduction); set-up: species or system mouse; conditions: kidney cultured ex vivo for 96 hours, reduced rhodoquinone levels; succinate oxidation not affected
Procedure: Ex vivo stable isotope tracing on tissues: Tissues were excised from mice and washed in 1×PBS. Tissues were then cut into small pieces and placed in the appropriate stable isotope tracing media. Stable isotope tracing media contained either ^13C5^15N2-glutamine (Sigma) or 13C4-aspartate (Sigma) dissolved in DMEM, 5% FBS, 1% P/S. For ex vivo tracing experiments performed on the brain, the same media was used without FBS. Tissues were incubated for the designated time at 37° C. in a normal or hypoxia tissue culture incubator. Tissues were removed from the media, washed with PBS, and flash frozen in liquid nitrogen. Samples could be stored at −80° C. until metabolites were isolated.
Rhodoquinone-9 is a previously unknown mammalian metabolite. Without wishing to be bound by any particular theory, it is believed that since the level of rhodoquinone-9 decreases overtime when the kidney is cultured ex vivo, that cultured media is missing a component of the rhodoquinone biosynthetic pathway, and that this component may be coming from the gut microbiome.

[3] = molecular target: T1, SDH complex (Homo sapiens, UniProt O14521+P21912+P31040+Q99643); test: SDH forward/reverse activity (succinate oxidation, fumarate reduction) by stable isotope tracing in cells; format: cell-based
T1 construct: endogenous in cells; host or cells: 143B cells (A5: live cells; A6: permeabilized mitochondria purified from them)
From the text: Fumarate reduction can be monitored in cells by the stable isotope tracing of either ^13C4-aspartate or ^13C5^15N2-glutamine. ^13C4-aspartate contributes to the fumarate pool via oxaloacetate and malate and so should lead to the production of ^13C4-succinate upon fumarate reduction (FIG. 2B). ^13C5^15N2-glutamine contributes to the fumarate pool through the reductive arm of the TCA cycle via glutamate, α-ketoglutarate, isocitrate, citrate, oxaloacetate, and malate. A key distinction between the two labeling approaches is that ^13C5^15N2-glutamine enriches the fumarate pool more upon antimycin treatment due to enhanced reductive carboxylation flux, whereas ^13C4-aspartate labels the fumarate pool to equivalent extents in vehicle and antimycin-treated cells (FIG. 2C). Therefore, with stable isotope tracing of ^13C4-aspartate, the level of ^13C4-succinate is a direct measure of fumarate reduction, whereas the stable isotope tracing of ^13C5^15N2-glutamine requires a ratiometric analysis of labeled succinate to labeled fumarate to normalize for differences in the extent of fumarate labeling.
To test if hypoxia triggers electron leakage onto fumarate or a net-reversal of the SDH complex, the ^13C5^15N2-glutamine tracer was utilized, which enables simultaneous quantification of the forward and reverse activities of SDH through the generation of unique isotopologues upon flux through the oxidative arm (α-ketoglutarate to succinate) compared to the reductive arm (α-ketoglutarate—via citrate—to fumarate) of the TCA cycle (FIG. 2E). In this assay, the forward (succinate oxidation) reaction was defined as the ratio of percent labeled ^13C4-fumarate to its precursor ^13C4-succinate (FIG. 2E) and the reverse (fumarate reduction) as that of percent labeled ^13C3-succinate to its precursor ^13C3-fumarate (FIG. 2E). This type of analysis can be performed when the labeling is in the steady-state, which was determined to be after 4-8 hours of incubation with ^13C5^15N2-glutamine (FIG. S2E-F). This ratiometric analysis of the succinate and fumarate isotopologues eliminates potential biases in the assay, such as higher ^13C3-fumarate labeling in antimycin-treated cells caused increased reductive carboxylation flux (FIG. S2E).
Stable isotope tracing in cells: Cells were seeded 24 hours prior to the experiment in 6-well dishes at 70% density. For stable isotope tracing of glutamine, glutamine-free DMEM (ThermoFisher) was supplemented with 2 mM ^13C5^15N2-glutamine (Sigma), 1 mM pyruvate, 5% FBS, 1% P/S, 0.1 mg/mL uridine. For stable isotope tracing of aspartate, DMEM containing 5% FBS, and 1% penicillin and streptomycin, and 0.1 mg/mL uridine (Sigma) was supplemented with the designated amount of 13C4-aspartate (Sigma) and the pH adjusted to 7.4. Uridine was left out of the media for stable isotope tracing experiments measuring nucleotide biosynthesis. Unless otherwise stated, for all experiments, cells were treated for 8 hours and metabolites were isolated as described below. Relevant compounds were added at the start of the incubation periods.

[4] = tested on: 143B cells; test: 14C-palmitate degradation radioactivity assay (fatty acid oxidation); format: cell-based, human; conditions: WT (UQ-containing) versus RquA (RQ-containing) 143B cells
From the text: Radioactivity assay to monitor 14C-palmitate degradation in WT (UQ-containing) and RquA (RQ-containing) 143B cells.

[5] = molecular target: DHODH (Homo sapiens, UniProt Q02127); conditions: for de novo UTP biosynthesis (13C3-UTP generation, DHODH activity): wild-type 143B cells, 13C4-aspartate tracing 8 hours, 500 nM antimycin, 2 μM brequinar
Procedure: Isolation of metabolites from adherent cells: To isolate metabolites, media was removed, cells were washed 2 times with ice cold 1×PBS, and wells were covered in LC-MS grade 80:20 Methanol:Water (ThermoFisher). Plates were scraped on dry ice and lysates were collected into eppendorf tubes. Lysates were vortexed for 10 minutes at 4° C. and centrifuged at 16,000×g for 10 minutes at 4° C. Supernatants were immediately dried down in a Refrigerated CentriVap Benchtop Vacuum Concentrator connected to a CentriVap-105 Cold Trap (Labconco). Dried pellets were stored at −80° C. until they were run on LC-MS.
Liquid Chromatography and Mass Spectrometry (polar): A QExactive bench top orbitrap mass spectrometer equipped with an Ion Max source and a HESI II probe coupled to a Dionex UltiMate 3000 HPLC system (Thermo Fisher Scientific) was used to perform all LC-MS experiments. The instrument underwent mass calibration using the standard calibration mixture every 7 days. 2 μL of re-suspended polar metabolite samples were injected onto a SeQuant ZIC-pHILIC 5 μm 150×2.1 mm analytical column equipped with a 2.1×20 mm guard column (MilliporeSigma). The column oven was held at 25° C. and the autosampler tray was held at 4° C. Buffer A was comprised of 20 mM ammonium carbonate, 0.1% ammonium hydroxide. Buffer B was comprised of 100% acetonitrile. The chromatographic gradient was run at a flow rate of 0.150 mL/min as follows: 0-20 min: linear gradient from 80-20% B; 20-20.5 min: linear gradient from 20-80% B; 20.5-28 min: hold at 80% B. The mass spectrometer was operated in full-scan, polarity-switching mode, with the spray voltage set to 3.0 kV, the heated capillary at 275° C., and the HESI probe at 350° C. The sheath gas flow was 40 units, the auxiliary gas flow was 15 units, and the sweep gas flow was 1 unit. MS data was collected in a range of m/z=70-1000. The resolution set at 70,000, the AGC target at 1×106, and the maximum injection time at 20 msec. An additional scan (m/z=220-700) was included in negative mode only to enhance detection of nucleotides.

[6] = 13C5 15N2-glutamine tracing, 143B cells

DHODH, sequence (Q02127 whole entry): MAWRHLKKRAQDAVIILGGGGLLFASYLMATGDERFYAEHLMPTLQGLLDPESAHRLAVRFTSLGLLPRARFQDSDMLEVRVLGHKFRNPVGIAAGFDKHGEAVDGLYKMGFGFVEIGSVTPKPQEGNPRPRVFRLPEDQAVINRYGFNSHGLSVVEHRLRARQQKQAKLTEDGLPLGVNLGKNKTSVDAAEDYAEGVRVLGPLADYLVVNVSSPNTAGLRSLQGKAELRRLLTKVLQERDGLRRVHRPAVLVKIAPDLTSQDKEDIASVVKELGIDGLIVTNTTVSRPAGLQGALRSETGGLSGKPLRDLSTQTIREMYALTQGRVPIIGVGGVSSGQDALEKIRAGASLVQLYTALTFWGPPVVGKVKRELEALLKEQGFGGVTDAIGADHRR
T1 sequence (P31040 43-664): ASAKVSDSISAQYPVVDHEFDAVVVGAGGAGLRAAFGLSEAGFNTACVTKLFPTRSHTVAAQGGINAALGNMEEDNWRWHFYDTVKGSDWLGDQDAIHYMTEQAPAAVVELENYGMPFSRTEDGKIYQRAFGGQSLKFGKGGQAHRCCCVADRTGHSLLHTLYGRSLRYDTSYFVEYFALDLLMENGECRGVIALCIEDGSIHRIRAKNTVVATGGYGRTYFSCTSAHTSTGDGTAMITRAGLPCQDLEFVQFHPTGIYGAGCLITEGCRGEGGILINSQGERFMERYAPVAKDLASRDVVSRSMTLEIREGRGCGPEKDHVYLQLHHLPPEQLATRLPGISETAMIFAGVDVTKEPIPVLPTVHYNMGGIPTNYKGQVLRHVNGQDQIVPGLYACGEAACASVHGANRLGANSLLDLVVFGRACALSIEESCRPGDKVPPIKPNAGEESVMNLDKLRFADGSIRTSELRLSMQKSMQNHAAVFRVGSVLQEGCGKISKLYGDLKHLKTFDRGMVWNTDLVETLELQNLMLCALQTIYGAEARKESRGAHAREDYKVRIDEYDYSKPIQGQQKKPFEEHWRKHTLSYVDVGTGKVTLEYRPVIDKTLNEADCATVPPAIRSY
T1 sequence (P21912 29-280): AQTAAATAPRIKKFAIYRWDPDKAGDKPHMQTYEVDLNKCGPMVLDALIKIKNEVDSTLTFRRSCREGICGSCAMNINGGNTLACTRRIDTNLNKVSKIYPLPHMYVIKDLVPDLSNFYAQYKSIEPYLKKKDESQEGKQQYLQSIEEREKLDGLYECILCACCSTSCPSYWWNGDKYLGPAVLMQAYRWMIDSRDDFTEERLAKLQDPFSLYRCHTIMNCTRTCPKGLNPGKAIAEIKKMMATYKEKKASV
T1 sequence (Q99643 30-169): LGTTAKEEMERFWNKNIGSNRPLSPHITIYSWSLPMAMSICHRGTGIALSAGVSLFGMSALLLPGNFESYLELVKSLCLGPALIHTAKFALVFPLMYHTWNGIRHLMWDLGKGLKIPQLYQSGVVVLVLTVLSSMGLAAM
T1 sequence (O14521 57-159): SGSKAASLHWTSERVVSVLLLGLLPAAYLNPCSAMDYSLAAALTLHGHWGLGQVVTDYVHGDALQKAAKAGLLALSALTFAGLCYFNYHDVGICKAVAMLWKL

Substance | fumarate reduction (succinate production over time) ([1]; purified permeabilized mitochondria from WT and RquA-expressing cells, fumarate and NADH, absence of antimycin) | fumarate reduction in the kidney [2] | terminal electron acceptor use in the mammalian ETC ([3]; rhodoquinone generated by RquA expression in cells) | fatty acid oxidation (14C-palmitate degradation) [4] | DHODH activity (13C3-UTP production) [5] | DHODH activity (13C4-aspartate into 13C3-UTP) ([5]; combined inhibition of complex III with antimycin and complex I with piericidin) | de novo UTP biosynthesis (13C3-UTP generation, DHODH activity) [5] | de novo UTP biosynthesis (13C3-UTP generation, DHODH activity) ([5]; listed as Antimycin) | rate of succinate oxidation versus fumarate reduction (vehicle: succinate oxidation higher) ([1]; permeabilized purified mitochondria, 1 μM antimycin) | fumarate reduction (SDH reverse activity) [3, 6] | succinate oxidation (SDH forward activity) [3, 6] | conversion of fumarate into succinate (13C4-succinate production, 13C4-aspartate tracing) ([3]; WT 143B cells, 500 nM antimycin) | ratio of isotopologues: fumarate reduction over succinate oxidation ([3]; antimycin treatment (also hypoxia exposure)) | fumarate reduction and succinate oxidation reactions ([3]; cells lacking SDHA or SDHB)
rhodoquinone | sufficient to drive fumarate reduction | required for ubiquitous fumarate reduction | promotes the use of fumarate as a terminal electron acceptor | drives lower fatty acid oxidation |  |  |  |  |  |  |  |  |  | 
antimycin |  |  |  |  | ablated | no effect | did not decrease | no effect | the opposite was the case | increased | decreased | robustly stimulated | approximately 4 fold | not altered
